Consider one molecule from BindingDB's records for doi:10.1016/j.bioorg.2015.03.004 (Suez Canal University, 2015).

In the assay the target is Vascular endothelial growth factor receptor 2 (Homo sapiens, UniProt P35968). As to the kind of experiment: ADP-GloTM Assay. The method, then:
The protein kinase assays used to determine IC50 value were performed using ADP-GloTM assay kit. The assay was started by incubating the reaction mixture in a 96-well plate at 30 °C for 30 min. After the 30 min incubation period, the assay was terminated by the addition of […] of ADPGloTM Reagent. The 96-well plate was shaken and then incubated for 40 min at ambient temperature, […] of kinase detection reagent was added, the 96-well reaction plate was then read using ADP-GloTM luminescences protocol on GloMaxTM plate reader. Blank control waqs set up that included all the assay components except the addition of appropriate substrate (replace with equal volume of kinase assay buffer).

Chain of Vascular endothelial growth factor receptor 2 (P35968 whole entry): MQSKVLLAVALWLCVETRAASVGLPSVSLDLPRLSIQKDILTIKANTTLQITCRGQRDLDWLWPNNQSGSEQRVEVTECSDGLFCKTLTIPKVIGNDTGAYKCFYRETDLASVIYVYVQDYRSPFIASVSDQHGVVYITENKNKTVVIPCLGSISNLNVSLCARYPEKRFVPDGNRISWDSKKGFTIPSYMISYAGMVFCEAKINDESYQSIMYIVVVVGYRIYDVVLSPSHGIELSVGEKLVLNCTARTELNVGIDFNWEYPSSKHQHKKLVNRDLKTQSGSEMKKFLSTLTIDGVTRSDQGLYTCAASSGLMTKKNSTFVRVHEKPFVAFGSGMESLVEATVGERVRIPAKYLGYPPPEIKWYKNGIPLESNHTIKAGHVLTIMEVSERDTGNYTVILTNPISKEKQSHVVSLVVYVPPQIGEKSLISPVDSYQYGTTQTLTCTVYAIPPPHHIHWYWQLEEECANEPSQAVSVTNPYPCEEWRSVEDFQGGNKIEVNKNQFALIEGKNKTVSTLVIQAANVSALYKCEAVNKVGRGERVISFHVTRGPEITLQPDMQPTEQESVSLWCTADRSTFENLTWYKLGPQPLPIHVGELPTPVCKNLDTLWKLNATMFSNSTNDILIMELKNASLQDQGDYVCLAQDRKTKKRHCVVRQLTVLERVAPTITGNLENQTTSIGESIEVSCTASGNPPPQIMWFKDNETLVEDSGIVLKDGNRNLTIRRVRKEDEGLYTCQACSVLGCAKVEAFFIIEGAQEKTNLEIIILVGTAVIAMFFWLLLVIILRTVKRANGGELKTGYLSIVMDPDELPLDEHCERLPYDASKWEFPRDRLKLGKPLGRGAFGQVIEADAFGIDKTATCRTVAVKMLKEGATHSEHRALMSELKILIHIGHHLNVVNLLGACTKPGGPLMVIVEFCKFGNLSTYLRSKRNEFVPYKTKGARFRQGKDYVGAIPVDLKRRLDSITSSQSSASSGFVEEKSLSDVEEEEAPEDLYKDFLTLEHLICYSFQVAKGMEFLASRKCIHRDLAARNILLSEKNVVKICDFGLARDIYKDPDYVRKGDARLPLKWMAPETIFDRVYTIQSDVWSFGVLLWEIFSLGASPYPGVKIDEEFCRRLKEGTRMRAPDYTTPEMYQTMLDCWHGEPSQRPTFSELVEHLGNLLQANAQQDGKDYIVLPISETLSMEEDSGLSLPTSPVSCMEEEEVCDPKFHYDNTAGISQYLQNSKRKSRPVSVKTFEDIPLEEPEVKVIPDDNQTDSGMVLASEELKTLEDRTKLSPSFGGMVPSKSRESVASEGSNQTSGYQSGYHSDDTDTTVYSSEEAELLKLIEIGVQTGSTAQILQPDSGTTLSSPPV

The IC50 is the concentration at which inhibition is half-maximal. The low end stands for inhibition by little substance, the high end for a need for much substance. `Cc1cc(C)c2c(Nc3ncnc4c3sc3nc(C)cc(C)c34)csc2n1` [N-(4,6-dimethylthieno[2,3-b]pyridine)-7,9-dimethylpyrido[30,20:4,5]thieno[3,2-d]pyrimidin-4-amine (9d)]: half-maximal inhibition (IC50) was put at 2600 nM.
